Laboratory results reported in patent publication US5712251A, “Treatment method” (Roussel Uclaf, priority 1979, dated 1998).

Key:
[1] = test system: testicular steroidogensis; experiment: Inhibitory activity against testicular steroidogenesis in men in good health, single intranasal dose (Example 1); format: in vivo; settings: for level of testosterone/steroids on the fourth day after administration: single intranasal dose of 500 μg, fourth day (until 6th day)
Method: The inhibitory activity of D Ser (Tbu)^6 or Gly^10 LH-RH ethylamide (described in German application Ser. No. 2,438,350) against testicular steroidogensis in men in good health was determined on men in good health aged 30 to 40 years. The said product was administered intranasally at a dose of 500 μg in a few drops of distilled water at 8 A.M. on the third day of the test. For 2 days prior to the treatment and for 6 days after the treatment, samples of blood were taken daily at 8 A.M., 3 P.M. and 10 P.M. On the day of administration of the LH-RH agonist, blood samples were taken at 11 A.M. and 6 P.M.
The seric concentrations of LH and FSH were measured by radioimmuno-logic dosages with double antibodies and the antibodies for measuring LH and FSH were furnished by the National Pituitary Agency of N.I.H. in Bethesda, Md. The seric concentrations of steroids was measured by radioimmuno-logic dosages in which one ml of serum was extracted with ether and the steroids were separated on a LH-20 column before measuring with radioimmuno-logic dosages. The radioimmuno-logic dosage results were determined by a program derived from model II of Rodbard et al [Second Karolinska Symposium on Research Methods in Reproductive Endocrinology, Diezfalusky Editer, Copenhague (1970), p. 79-103]. The statistical significance was determined by the "multiple level test" of Duncan-Kramer [Kramer, Biometrics, Vol 12 (1956), p. 307]. The results are shown in the graphs on sheet 1 of the Figures filed herewith.

ovarian steroidogenosis = experiment: Inhibitory activity on ovarian steroidogenesis in women (Example 3); format: in vivo
Method: The study was conducted for 6 consecutive cycles consisting of 2 pretreatment cycles, 2 treatment cycles and 2 post-treatment cycles. […] Daily blood samples were taken between 4 and 6 P.M. to measure seric levels of LH, FSH, progesterone and estradiol which were determined by radioimmuno-logic tests with double antibodies. The antibodies to measure LH and FSH were furnished by the National Pituitary Agency of N.I.H. of Bethesda, Md.
Estradiol and progesterone were measured with highly specific antibodies developed against 7-(O-carboxymethyl)-oxime of estradiol and 12-(O-carboxymethyl)-oxime of progesterone, respectively [3H] 17β-estradiol and ^125 I-progesterone-12-[O-carboxymethyl)-oxime]used as tracers. The serum was extracted with benzene and the steroids were separated with a LH-20 column before the determination. The radioimmunological results were exploited by the program derived from model II of Rodbard and Lewald as in Example 1 and the statistical significance was measured by the multiple level test of Ducan-Kramer of Example 1. The results are shown in the graphs of sheets 3 to 5 of the Figures.

[2] = test system: prostate and seminal vesicules; experiment: Peptide in association with an antiandrogen: weight of prostate and seminal vesicles of rats (Example 4); format: in vivo, rats of the Sprague-Dawley strain; settings: 100 or 500 μg peptide s.c. daily plus 5 mg product A twice daily, 14 days
Method: The effect of the administration of D Ser (Tbu)^6 of Gly^10 LH-RH ethylamide in association with an antiandrogen was determined on groups of 9 normal rats of the Sprague-Dawley strain weighing about 250 g. The rats received for 14 days a subcutaneous administration at 9 A.M. of D Ser (Tbu)^6 of Gly^10 LH-RH ethylamide at a dose of 20, 100 or 500 μg in physiological serum and at 9 A.M. and 4 P.M. doses of 1 or 5 mg of 5,5-dimethyl-3-[4-nitro-3-trifluoromethyl-phenyl]-2,4-imidazolidinedione (product A) in solution in sesame oil containing 5% of benzyl alcohol. One group of rats received only physiological serum and one group received only product A.
The animals were killed 24 hours after the last injection and the weight of the prostate and seminal vesicules of the rats were determined.

[3] = 3rd day following peptide administration, intranasal 500 μg

SMILES: CCNC(=O)[C@@H]1CCCN1C(=O)[C@H](CCCNC(=N)N)NC(=O)[C@H](CC(C)C)NC(=O)[C@@H](COC(C)(C)C)NC(=O)[C@H](Cc1ccc(O)cc1)NC(=O)[C@H](CO)NC(=O)[C@H](Cc1c[nH]c2ccccc12)NC(=O)[C@H](Cc1c[nH]cn1)NC(=O)[C@@H]1CCC(=O)N1 [D Ser (Tbu)^6 of Gly^10 LH-RH ethylamide]
- concentration of 17-OH-progesterone relative to initial control values [1, 3]: 40%
- concentration of testosterone relative to initial control values [1, 3]: 50%
- FSH plasmatic level ([1]; intranasal 500 μg, men): increase
- LH plasmatic level ([1]; intranasal 500 μg, men): increase
- level of testosterone/steroids on the fourth day after administration ([1]; listed as D Ser (Tbu)^6 or Gly^10 LH-RH ethylamide): returned to normal
- level of testosterone/steroids on the fourth day after administration ([1]; listed as peptide): return to normal levels
- progesterone level in cycles of post-treatment, pretreatment cycles as base of 100% (ovarian steroidogenosis; 12 cycles, 6 women): 99%
- progesterone level in cycles of treatment, pretreatment cycles as base of 100% (ovarian steroidogenosis; 12 cycles, 6 women): 46%
- level of progesterone reduced as compared to the controls (ovarian steroidogenosis; review of 12 cycles (sheet 5)): 46%
- level of seric progesterone in the 2 cycles of post-treatment (ovarian steroidogenosis; sheet 4): return to normal
- reduction of seric level of progesterone as compared to controls, first treatment cycle (ovarian steroidogenosis; typical subject (sheet 3), 500 μg intranasal at 8 A.M. and 5 P.M. on one day between 4th and 9th day after LH peak): 13%
- reduction of seric level of progesterone as compared to controls, second treatment cycle (ovarian steroidogenosis; typical subject (sheet 3), same regimen): 34%
- weight of the prostate [2]: Similar, but a little less marked
- weight of the seminal vesicules [2]: approached the weight of the seminal vesicules of castrated rats
